In patent US7321027B2, “Small technetium-99m and rhenium labeled agents and methods for imaging tumors” (President and Fellows of Harvard College, priority 2000, dated 2008):

Experiments:
[1] = Determination of lipophilicity and pKa values by HPLC; type: physicochemical; details: HPLC method
Method: The physicochemical parameters of the rhenium complexes, i.e. lipophilicity log P, log D(pH 7.4), and pKa (Table 2) were determined using HPLC methods (Braumann, T.; Grimme, L. H. Determination of Hydrophobic Parameters for Pyridazinone Herbicides by Liquid-Liquid Partition and Reversed-Phase High-Performance Liquid Chromatography. J. Chromatogr. 1981, 206, 7-15; Stytli, C.; Theobald, A. E. Determination of Ionization Constants of Radiopharmaceuticals in Mixed Solvents by HPLC. Appl. Radiat. Isot., 1987, 38, 701-708; Johannsen, B.; Scheunemann, M.; Spies, H.; Brust, P.; Wober, J.; Syhre, R.; Pietzsch, H.-J. Technetium(V) and Rhenium(V) Complexes for 5-HT2A Serotonin Receptor Binding: Structure-Affinity Considerations. Nucl. Med. Biol., 1996, 23, 429-438; and Johannsen, B.; Berger, R.; Brust, P.; Pietzsch, H.-J; Scheunemann, M.; Seifert, S.; Spies, H.; Syhre, R. Structural Modification of Receptor-Binding Technetium-99m Complexes in Order to Improve Brain Uptake. Eur. J. Nucl. Med. 1997, 24, 316-319). […] Since log D(pH 7.4) is a composite measure of log P and pKa, the log D(PH 7.4) of Re-Compound B (1.9) is also higher than that of Re-Compound A (1.1). […] With pKa values >9 for complexes Re-Compound C and Re-Compound D, the resulting low log D(PH 7.4) values of −0.5 (Re-Compound C) and 0.7 (Re-Compound D) are not surprising, since the complexes would exist in a protonated form at pH 7.4.
Determination of Lipophilicity and pKa Values. The lipophilicity and pKa values of all complexes were determined using HPLC methods described previously (Stylli, C.; Theobald, A. E. Determination of Ionization Constants of 4 Radiopharmaceuticals in Mixed Solvents by HPLC. Appl. Radiat. Isot., 1987, 38, 701-708; Johannsen, B.; Scheunemann, M.; Spies, H.; Brust, P.; Wober, J.; Syhre, R.; Pietzsch, H.-J. Technetium(V) and Rhenium(V) Complexes for 5-HT2A Serotonin Receptor Binding: Structure-Affinity Considerations. Nucl. Med. Biol., 1996, 23, 429-438; and Johannsen, B.; Berger, R.; Brust, P.; Pietzsch, H.-J.; Scheunemann, M.; Seifert, S.; Spies, H.; Syhre, R. Structural Modification of Receptor-Binding Technetium-99m Complexes in Order to Improve Brain Uptake. Eur. J. Nucl. Med. 1997, 24, 316-319). […] The mobile phase was acetonitrile:phosphate buffer (0.01 M), 3:1, v/v, with the aqueous buffer adjusted to the desired pH between 3 and 11. The capacity factor (k′) was calculated for each determination (Braumann, T.; Grimme, L. H. Determination of Hydrophobic Parameters for Pyridazinone Herbicides by Liquid-Liquid Partition and Reversed-Phase High-Performance Liquid Chromatography. J. Chromatogr. 1981, 206, 7-15; El Tayer, N.; van der Waterbeemd, H.; Testa, B. Lipophilicity Measurements of Protonated Basic Compounds by Reversed-Phase High-Performance Liquid Chromatography. II. Procedure for the Determination of a Lipophilic Index Measured by Reversed-Phase High Performance Liquid Chromatography. J. Chromatogr. 1985, 320, 305-312; and Minick, D. J.; Frenz, J. H.; Patrick, M. A.; Brent, D. A. A Comprehensive Method for Determining Hydrophobicity Constants by Reversed-Phase High-Performance Liquid Chromatography. J. Med. Chem., 1988, 31, 1923-1933) and the partition coefficient at a given pH (D or log D) were calculated from the equation: log D=a log k′+b where the parameters a and b are predetermined using standard amines. The fitted points of inflection from the sigmoidal DHPLC/pH profiles permit calculation of the pKHPLC(Stylli, C.; Theobald, A. E. Determination of Ionization Constants of Radiopharmaceuticals in Mixed Solvents by HPLC. Appl. Radiat. Isot., 1987, 38, 701-708). The aqueous ionization constants pKa were calculated from the pKHPLC values after correction with a predetermined correction factor obtained using standard amine compounds. Log P values of the neutral complexes were estimated from the respective upper plateau of the sigmoidal log D/pH curve in the alkaline range.

σ2-receptors = biological target: T1, σ2-receptors (Rattus norvegicus, UniProt Q5U3Y7); assay: σ2-Receptor binding assay; details: σ2 vs σ1
T1 construct: Rat liver membranes were prepared from male Sprague-Dawley rat livers as previously described; from tissue; host or cells: male Sprague-Dawley rat liver membranes
T1 sequence (Q5U3Y7 1-176): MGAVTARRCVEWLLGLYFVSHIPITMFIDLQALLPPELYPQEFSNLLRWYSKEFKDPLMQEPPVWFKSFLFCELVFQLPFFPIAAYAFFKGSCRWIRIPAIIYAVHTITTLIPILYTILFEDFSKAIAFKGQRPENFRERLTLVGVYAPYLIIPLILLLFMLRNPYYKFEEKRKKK
Method: Receptor Binding Studies. To understand the involvement of receptor binding in the melanoma-cell uptake of these ^99mTc-complexes, we further investigated the affinity of these complexes in an established σ-receptor assay.
σ2-Receptor Binding Assay. Rat liver membranes were prepared from male Sprague-Dawley rat livers as previously described (Hellewell, S. B.; Bruce A.; Feinstein, G.; Orringer, J.; Williams, W.; Bowen, W. D. Rat Liver and Kidney Contain High Densities of σ1 and σ2 Receptors: Characterization by Ligand Binding and Photoaffinity Labeling. Eur. J. Pharmacol.-Mol. Pharmacol. Sect. 1994, 268, 9-18). […] Competition assays were performed with fifteen concentrations of the nonradioactive rhenium complexes ranging from 10^−10 to 10^−3 M and protein samples (0.15 mg membrane protein) in Tris-HCl (50 mM), pH 8.0, for 120 min at 25° C. in a 0.25-mL volume. All other manipulations and data analysis were performed as described vide supra for the σ1 receptor assay.

melanoma = details: 1 hour post injection; cited from earlier work

| pKa [1] | log D(pH 7.4) ([1]; pH 7.4) | greater affinity toward the σ2-receptor subtype (σ2-receptors) [fold] | SMILES | melanoma uptake (melanoma) |
| --- | --- | --- | --- | --- |
| 9.2 | −0.5 | 100 | CCN(CC)CCCN1CC[S][Re]2(=[O])[S]CC[N]2C(=O)C1 (centres unmarked) [Re-Compound C, [ReOAADT]-C3—NEt2] |  |
|  |  |  | CCN(CC)CCNC(=O)c1ccc(CC2[N]3CC(C)(C)[S][Tc]34(#[N])[S]C(C)(C)C[N]4C2(C)C)cc1 (centres unmarked) [Compound 1] | Compound 10.4% uptake % ID/g |
|  |  |  | CCN(CC)CCNC(=O)c1ccc(CCNC2=[SH][Tc]3(#[N])([S]2)[S]C(NCCc2ccc(C(=O)NCCN(CC)CC)cc2)=[SH]3)cc1 [Compound 4] | Compound 40.5% uptake % ID/g |
